# Experimental data taken from patent US9073944B2, “Cyclic diaminopyrimidine derivatives” (Merck Patent GmbH, priority 2012, dated 2015).
# Columns and labels:
# GCN2 = GCN2 (Homo sapiens, UniProt Q9P2K8); assay: GCN2 enzyme assay (TR-FRET Lanthascreen, GFP-eIF2alpha substrate); type: biochemical; settings: class symbols
# Experimental: APCI-MS (atmospheric pressure chemical ionisation-mass spectrometry) (M+H)^+. • Mass spectrometry (MS): EI (electron impact ionisation) M^+ • FAB (fast atom bombardment) (M+H)^+ • ESI (electrospray ionisation) (M+H)^+ • m.p.=melting point • LCMS Method: • Column: ZORBAX SB-C8 30*4.6 mm, 3.5 um • Mobile Phase A: Water+0.03% TFA • Mobile Phase B: ACN+0.05% TFA • Gradient: 5-95% B in 2.5 minutes • Flow: 2.0 mL/min • Wavelength: UV1:220 nm, UV2:254 nm • Mass Scan: 100-900 Da GCN2: Assay Principle & Conditions
# This assay can quantificate the activity of the serin kinase GCN2 (general control non-derepressible-2).
# This kinase is involved in the stress metabolism of cells. It is activated upon starvation (amino acid depletion). Its natural substrate is eIF2a (eukaryotic initiation factor 2 alpha subunit), a translation factor, which gets activated (phosphorylated) by GCN2 in case of an amino acid bottleneck in the cells. This in turn leads to a halt of the protein synthesis. Inhibition of GCN2 results in stopping this mechanism: The cell can not stop protein production upon “starvation” stress.
# The assay is run in two steps: the enzymatic reaction and the detection step. In the first step GCN2 is incubated with 10 μM ATP and 80 nM of the GFP-labelled substrate eIF2alpha at room temperature.
# The enzymatic reaction is stopped by addition of EDTA. The amount of phosphorylated eIF2alpha is determined by TR-FRET (Lanthascreen): A complex is formed consisting of antibody and GFP labelled phospho-eIF2a, which allows a FRET upon exitation at 340 nm.
# The GCN2-activity is directly proportional to the ratio of fluorescence units at the emission wavelength 520 nm (phosphopeptide-sensitive wavelength=emission of GFP) to the units at 495 nm (reference wavelength=emission of Terbium-chelate).
# Final Concentrations in the Enzymatic Reaction
# SYK = SYK (Homo sapiens, UniProt P43405); assay: SYK flash plate assay; type: biochemical; settings: class symbols; read-out: IC50 SYK (enzyme assay)
# Experimental: The kinase assay is performed either as 384-well Flashplate assay (for e.g. Topcount measurement) or as 384-well Image-Flashplate assay (for LEADseeker measurement). • 2.5 nM SYK, 400 nM Biotin-Aha-Aha-KEDPDYEWPSAKK • and 10 μM ATP (spiked with 0.3 μCi 33P-ATP/well) are incubated in a total volume of 50 μl (60 mM Hepes, 10 mM MgCl2, 1.2 mM Dithiothreitol, 0.02% Brij35, 0.1% BSA, pH 7.5) with or without test compound for 1 hours at 30° C. The reaction is stopped with 25 μl 200 mM EDTA. After 30 Min at 30° C. the liquid is removed and each well washed thrice with 100 μl 0.9% sodium chloride solution. Non-specific reaction is determined in presence of 0.1 μM Staurosporine. Radioactivity is measured with Topcount (when using Flashplates) or with LEADseeker (when using Image-Flashplates) respectively. Results (e.g. IC50-values) are calculated with program tools provided by the IT-department (e.g. Symyx Assay Explorer, Genedata Screener). In vivo Assays CIA
# GCN2, sequence (Q9P2K8 whole entry, species assumed): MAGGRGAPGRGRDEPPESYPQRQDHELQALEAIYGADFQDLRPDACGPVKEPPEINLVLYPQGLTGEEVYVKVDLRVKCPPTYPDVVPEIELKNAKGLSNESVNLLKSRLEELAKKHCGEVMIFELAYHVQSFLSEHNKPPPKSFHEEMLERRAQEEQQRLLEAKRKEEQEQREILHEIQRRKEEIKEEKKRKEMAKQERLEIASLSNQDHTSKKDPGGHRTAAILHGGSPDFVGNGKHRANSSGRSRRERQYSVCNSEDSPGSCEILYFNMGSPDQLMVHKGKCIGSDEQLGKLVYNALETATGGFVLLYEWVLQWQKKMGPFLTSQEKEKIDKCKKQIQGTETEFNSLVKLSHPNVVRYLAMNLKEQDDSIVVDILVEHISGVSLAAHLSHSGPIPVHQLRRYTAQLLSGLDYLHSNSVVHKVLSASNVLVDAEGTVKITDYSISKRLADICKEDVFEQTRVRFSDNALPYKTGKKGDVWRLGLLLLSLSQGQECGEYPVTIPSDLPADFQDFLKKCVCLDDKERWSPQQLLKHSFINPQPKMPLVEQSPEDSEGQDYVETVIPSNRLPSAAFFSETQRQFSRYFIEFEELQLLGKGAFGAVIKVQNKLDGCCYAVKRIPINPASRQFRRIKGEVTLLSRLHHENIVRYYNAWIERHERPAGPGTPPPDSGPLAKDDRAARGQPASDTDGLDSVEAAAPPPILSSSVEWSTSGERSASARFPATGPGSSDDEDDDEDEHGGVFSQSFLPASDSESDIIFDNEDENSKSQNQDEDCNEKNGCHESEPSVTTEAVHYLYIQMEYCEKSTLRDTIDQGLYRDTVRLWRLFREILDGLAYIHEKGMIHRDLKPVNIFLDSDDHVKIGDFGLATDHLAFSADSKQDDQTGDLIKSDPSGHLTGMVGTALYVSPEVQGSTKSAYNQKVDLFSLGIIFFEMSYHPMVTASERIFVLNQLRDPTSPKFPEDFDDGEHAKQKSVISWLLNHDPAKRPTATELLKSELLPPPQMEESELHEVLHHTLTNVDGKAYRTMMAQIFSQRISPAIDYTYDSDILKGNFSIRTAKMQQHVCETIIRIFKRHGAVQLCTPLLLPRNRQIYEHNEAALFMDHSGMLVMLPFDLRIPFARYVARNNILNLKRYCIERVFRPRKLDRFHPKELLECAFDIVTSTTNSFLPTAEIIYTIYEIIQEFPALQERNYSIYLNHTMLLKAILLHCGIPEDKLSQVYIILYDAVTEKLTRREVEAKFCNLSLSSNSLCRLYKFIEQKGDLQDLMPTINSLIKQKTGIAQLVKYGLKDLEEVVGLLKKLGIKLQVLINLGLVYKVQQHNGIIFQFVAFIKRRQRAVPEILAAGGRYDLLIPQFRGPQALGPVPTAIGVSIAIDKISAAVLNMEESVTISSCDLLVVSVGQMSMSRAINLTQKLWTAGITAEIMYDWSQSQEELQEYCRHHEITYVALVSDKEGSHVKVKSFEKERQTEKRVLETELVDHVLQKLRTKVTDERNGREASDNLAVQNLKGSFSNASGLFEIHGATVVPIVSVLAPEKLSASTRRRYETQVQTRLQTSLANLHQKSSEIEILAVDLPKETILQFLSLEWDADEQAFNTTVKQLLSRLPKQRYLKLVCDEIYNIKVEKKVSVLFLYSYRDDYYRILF
SMILES,IC50 (GCN2) [µM],IC50 (SYK) [µM]
CN1CC(=O)Nc2cccc(c2)Nc2ncc(F)c(n2)Nc2ccc3c(c2)NC(=O)C(C)(O3)C1=O (racemic) [Compound 15],0.3 to 3,< 0.3
"CN1CC(=O)Nc2cccc(c2)Nc2ncc(F)c(n2)Nc2ccc3c(c2)NC(=O)[C@@](C)(O3)C1=O (single isomer, unassigned) [Compound 16]",3 to 50,0.3 to 3
"CN1CC(=O)Nc2cccc(c2)Nc2ncc(F)c(n2)Nc2ccc3c(c2)NC(=O)[C@](C)(O3)C1=O (single isomer, unassigned) [Compound 17]",0.3 to 3,< 0.3
CC12CCOC(=O)Nc3cccc(c3)Nc3ncc(F)c(n3)Nc3ccc(c(c3)NC1=O)O2 (stereo not drawn) [Compound 6],,< 0.3
CC12CCOC(=O)NCc3cccc(c3)Nc3ncc(F)c(n3)Nc3ccc(c(c3)NC1=O)O2 (stereo not drawn) [Compound 9],,< 0.3
CC12Oc3ccc(cc3NC1=O)Nc1nc(ncc1F)Nc1cccc(c1)CCNC2=O (stereo not drawn) [Compound 12],3 to 50,3 to 50
CN1CC(=O)N(C)c2cccc(c2)Nc2ncc(F)c(n2)Nc2ccc3c(c2)NC(=O)C(C)(O3)C1=O (stereo not drawn) [Compound B1],,3 to 50
COc1cc2cc(c1)NC(=O)CN(C)C(=O)C1(C)Oc3ccc(cc3NC1=O)Nc1nc(ncc1F)C2 (stereo not drawn) [Compound B2],,< 0.3
COc1cc2c3cc1Nc1ncc(F)c(n1)Nc1ccc4c(c1)NC(=O)C(C)(O4)C(=O)NCCN(C)CC(=O)N3CC2 (stereo not drawn) [Compound B7],,3 to 50
COc1cc2ccc1OCCCNC(=O)C1(C)Oc3ccc(cc3NC1=O)Nc1nc(ncc1F)N2 (stereo not drawn) [Compound B11],0.3 to 3,3 to 50
COc1cc2ccc1OCCCCNC(=O)C1(C)Oc3ccc(cc3NC1=O)Nc1nc(ncc1F)N2 (stereo not drawn) [Compound B12],0.3 to 3,3 to 50
CC12Oc3ccc(cc3NC1=O)Nc1nc(ncc1F)Nc1ccc(cc1)OCCC(=O)NCCCNC2=O (stereo not drawn) [Compound B15],,0.3 to 3
CC12Oc3ccc(cc3NC1=O)Nc1nc(ncc1F)Nc1ccc(cc1)OCCCC(=O)NCCCNC2=O (stereo not drawn) [Compound B16],,0.3 to 3
CC12Oc3ccc(cc3NC1=O)Nc1nc(ncc1F)Nc1cccc(c1)NC(=O)N1CCC[C@H]1C(=O)NCCCNC2=O (stereo partly drawn) [Compound B17],,3 to 50
CC12Oc3ccc(cc3NC1=O)Nc1nc(ncc1F)Nc1cccc(c1)S(=O)(=O)NCCC(=O)NCCCNC2=O (stereo not drawn) [Compound B18],0.3 to 3,
COc1ccc2cc1Nc1ncc(F)c(n1)Nc1ccc3c(c1)NC(=O)C(C)(O3)C(=O)NCCNC2=O (stereo not drawn) [Compound B19],,0.3 to 3
COc1cc2ccc1OCCCCNC(=O)[C@@H](Cc1ccccc1)NC(=O)[C@]1(C)Oc3ccc(cc3NC1=O)Nc1nc(ncc1F)N2 [Compound B20],3 to 50,0.3 to 3
COc1cc2cc(c1)C(=O)NCCNC(=O)C1(C)Oc3ccc(cc3NC1=O)Nc1nc(ncc1F)N2 (stereo not drawn) [Compound B23],0.3 to 3,0.3 to 3
COc1cc2ccc1OCCNC(=O)[C@H](Cc1ccccc1)NC(=O)[C@]1(C)Oc3ccc(cc3NC1=O)Nc1nc(ncc1F)N2 [Compound B25],,0.3 to 3
